According to ChEMBL document CHEMBL3779814, “6-O-Nucleotidyltransferase: an aminoglycoside-modifying enzyme specific for streptomycin/streptidine” (2016):
≈ marks a conversion by molar mass, not a printed value. Calls of active or inactive are those of the source. The calls are words filed in the database; no cut-off is given here.

Legend:
Bacillus subtilis [1] = experiment: Activity of Bacillus subtilis N-terminal His-tagged ANT(6) expressed in Escherichia coli BL21(DE3) cells assessed as adenylated product by Michaelis-Menten kinetics
Escherichia coli [2] = experiment: Antibacterial activity against Escherichia coli incubated for 12 hrs; type: functional
Escherichia coli [3] = experiment: Antibacterial activity against Escherichia coli BL21(DE3) expressing Bacillus subtilis N-terminal His-tagged ANT(6) incubated for 12 hrs; type: functional
Bacillus subtilis [4] = experiment: Activity of Bacillus subtilis N-terminal His-tagged ANT(6) expressed in Escherichia coli BL21(DE3) cells assessed as ratio of Kcat to Km of adenylated product by Michaelis-Menten kinetics
Escherichia coli [5] = experiment: Antibacterial activity against Escherichia coli incubated for 12 hrs in presence of 2-deoxystreptidine; type: functional
Escherichia coli [6] = experiment: Antibacterial activity against Escherichia coli BL21(DE3) harboring pET plasmid incubated for 12 hrs in presence of 2-deoxystreptidine; type: functional
Escherichia coli [7] = experiment: Antibacterial activity against Escherichia coli BL21(DE3) expressing Bacillus subtilis N-terminal His-tagged ANT(6) incubated for 12 hrs in presence of 2-deoxystreptidine; type: functional
Escherichia coli [8] = experiment: Antibacterial activity against Escherichia coli in presence of streptidine; type: functional
Escherichia coli [9] = experiment: Antibacterial activity against Escherichia coli BL21(DE3) harboring pET plasmid in streptidine; type: functional
Escherichia coli [10] = experiment: Antibacterial activity against Escherichia coli BL21(DE3) expressing Bacillus subtilis N-terminal His-tagged ANT(6) in presence of streptidine; type: functional
Escherichia coli [11] = experiment: Antibacterial activity against Escherichia coli; type: functional
Escherichia coli [12] = experiment: Antibacterial activity against Escherichia coli BL21(DE3); type: functional
Escherichia coli [13] = experiment: Antibacterial activity against Escherichia coli BL21(DE3) expressing ANT(6); type: functional
Serratia marcescens = experiment: Activity of Serratia marcescens ANT(3'')-1i/AAC(6')-2d expressed in Escherichia coli BL21(DE3) cells assessed as ratio of Kcat to Km of ANT(3'')-1i domain catalysed adenylated product by steady state kinetic analysis
Escherichia coli [14] = experiment: Antibacterial activity against Escherichia coli BL21(DE3) harboring pET plasmid incubated for 12 hrs; type: functional

**Q.** Which Activity (Bacillus subtilis [1]) does the source give for `NC[C@H]1O[C@H](O[C@H]2[C@H](O)[C@@H](O[C@H]3O[C@H](CO)[C@@H](O)[C@H](N)[C@H]3O)[C@H](N)C[C@@H]2N)[C@H](O)[C@@H](O)[C@@H]1O` here?
**A.** The Activity was “inactive”.

**Q.** For `Nc1ncnc2c1ncn2[C@@H]1O[C@H](COP(=O)(O)OP(=O)(O)O)[C@@H](O)[C@H]1O`, which Activity (Bacillus subtilis [1]) is on record?
**A.** The Activity was “inactive”.

**Q.** Which results are given for `N[C@@H]1C[C@H](N)[C@@H](O)[C@H](O)[C@H]1O`?
**A.** MIC90 (Escherichia coli [2]): > 100 µg/mL; MIC90 (Escherichia coli [3]): > 100 µg/mL

**Q.** `O=c1ccn([C@@H]2O[C@H](COP(=O)(O)OP(=O)(O)OP(=O)(O)O)[C@@H](O)[C@H]2O)c(=O)[nH]1` was tested. Which Activity (Bacillus subtilis [1]) did it give?
**A.** The Activity was “Active”.

**Q.** How did the kcat/Km (Bacillus subtilis [4]) turn out when `Nc1ncnc2c1ncn2[C@@H]1O[C@H](COP(=O)(O)OP(=O)(O)OP(=O)(O)O)[C@@H](O)[C@H]1O` was run?
**A.** Its kcat/Km is 2.1 ×10² /s/M.

**Q.** And the Activity (Bacillus subtilis [1])?
**A.** The Activity was “Active”.

**Q.** And the Km (Bacillus subtilis [1])?
**A.** The Km was 84 µM.

**Q.** What about the kcat (Bacillus subtilis [1]) of the same compound?
**A.** The kcat was 0.018 s⁻¹.

**Q.** For `Nc1ncnc2c1ncn2[C@@H]1O[C@H](COP(=O)(O)O)[C@@H](O)[C@H]1O`, which Activity (Bacillus subtilis [1]) is on record?
**A.** The Activity was “inactive”.

**Q.** With `Nc1nc2c(ncn2[C@@H]2O[C@H](COP(=O)(O)OP(=O)(O)OP(=O)(O)O)[C@@H](O)[C@H]2O)c(=O)[nH]1` as the compound, how does the Activity (Bacillus subtilis [1]) read?
**A.** The Activity was “Active”.

**Q.** `CN[C@@H]1[C@H](O[C@H]2[C@H](O[C@H]3[C@H](O)[C@@H](O)[C@H](N=C(N)N)[C@@H](O)[C@@H]3N=C(N)N)O[C@@H](C)[C@]2(O)C=O)O[C@@H](CO)[C@H](O)[C@H]1O` [STREPTOMYCIN] was tested. Which MIC90 (Escherichia coli [5]) did it give?
**A.** The MIC90 was 2 µg/mL.

**Q.** And the MIC90 (Escherichia coli [6])?
**A.** The MIC90 was 100 µg/mL.

**Q.** What about the MIC90 (Escherichia coli [7]) of the same compound?
**A.** Its MIC90 is 100 µg/mL.

**Q.** And the MIC90 (Escherichia coli [8])?
**A.** The MIC90 was 5 µg/mL.

**Q.** And the MIC90 (Escherichia coli [9])?
**A.** Its MIC90 is 5 µg/mL (≈ 8.6 µM).

**Q.** And the MIC90 (Escherichia coli [10])?
**A.** The MIC90 was 10 µg/mL.

**Q.** And the MIC90 (Escherichia coli [11])?
**A.** The MIC90 was 5 µg/mL (≈ 8.6 µM).

**Q.** What about the MIC90 (Escherichia coli [12]) of the same compound?
**A.** Its MIC90 is 5 µg/mL (≈ 8.6 µM).

**Q.** What about the MIC90 (Escherichia coli [13]) of the same compound?
**A.** The MIC90 was greater than 200 µg/mL.

**Q.** What about the kcat/Km (Bacillus subtilis [4]) of the same compound?
**A.** Its kcat/Km is 9.2 ×10² /s/M.

**Q.** What about the Km (Bacillus subtilis [1]) of the same compound?
**A.** The Km was 38 µM.

**Q.** And the kcat (Bacillus subtilis [1])?
**A.** Its kcat is 0.03 s⁻¹.

**Q.** And the kcat/Km (Serratia marcescens)?
**A.** The kcat/Km was 3.2 ×10⁵ /s/M.

**Q.** Which MIC90 (Escherichia coli [2]) does the source give for `N=C(N)N[C@@H]1[C@@H](O)[C@H](NC(=N)N)[C@@H](O)[C@H](O)[C@H]1O` here?
**A.** The MIC90 was greater than 100 µg/mL.

**Q.** And the MIC90 (Escherichia coli [14])?
**A.** Its MIC90 is greater than 100 µg/mL.

**Q.** What about the MIC90 (Escherichia coli [3]) of the same compound?
**A.** The MIC90 was greater than 200 µg/mL.

**Q.** And the kcat/Km (Bacillus subtilis [4])?
**A.** Its kcat/Km is 1.2 M⁻¹ s⁻¹.

**Q.** What about the Km (Bacillus subtilis [1]) of the same compound?
**A.** The Km was 600 µM.

**Q.** What about the kcat (Bacillus subtilis [1]) of the same compound?
**A.** Its kcat is 0.0006 s⁻¹.

**Q.** How did the Activity (Bacillus subtilis [1]) turn out when `Nc1ccn([C@@H]2O[C@H](COP(=O)(O)OP(=O)(O)OP(=O)(O)O)[C@@H](O)[C@H]2O)c(=O)n1` was run?
**A.** The Activity was “Active”.

**Q.** For `Nc1ncnc2c1ncn2[C@@H]1O[C@H](COP(=O)(O)CP(=O)(O)OP(=O)(O)O)[C@@H](O)[C@H]1O`, which Activity (Bacillus subtilis [1]) is on record?
**A.** Its Activity is “inactive”.

**Q.** Which Activity (Bacillus subtilis [1]) does the source give for `NC[C@H]1O[C@H](O[C@H]2[C@H](O[C@@H]3O[C@H](CO)[C@@H](O)[C@H]3O)[C@@H](O)[C@H](N)C[C@@H]2N)[C@H](N)[C@@H](O)[C@@H]1O` here?
**A.** Its Activity is “inactive”.
